Paper PMC10850047, “Exploring the impact of PEGylation on pharmacokinetics: a size-dependent effect of polyethylene glycol on prostate-specific membrane antigen inhibitors” (EJNMMI Research, 2024)

How the values were obtained:
[1] = tested on: LNCaP cells; assay: Uptake and internalization in LNCaP cells; assay type: cell-based, human; conditions: 120 min incubation, normalized to 10^6 cells
Method: LNCaP prostate cancer cell line obtained from the American Type Culture Collection (ATCC, Manassas, VA) was used for cell affinity studies. […] The supernatant was disposed, and the cell pellet was resuspended in a culture medium, and LNCaP cells (150,000 cells/well) were counted with a hemocytometer and seeded in poly-L-lysine-coated 24-well plates used in cell binding studies. The cells were then allowed to grow at 37 °C for 48 h. PC3-PIP cells provided by Professor Xiaoyuan Chen (Singapore) require additional Puromycin (2 µg/ml) in addition to the appealed culture conditions.

[2] = tested on: LNCaP tumor-bearing NOD/SCID mice; assay: Biodistribution in LNCaP tumor model; conditions: for Blood uptake / Bone uptake / Brain uptake / Heart uptake / Kidney uptake / Liver uptake / Lung uptake / Muscle uptake / Salivary uptake / Small int (small intestine) uptake / Spleen uptake / Stomach uptake / Tumor uptake: mean ± SD (n=5)
[3] = design: method as in PMID 36696174; conditions: at 2 h; cited from earlier work
[4] = target: T1, PSMA (Homo sapiens, UniProt Q04609); conditions: LNCaP cells, competition with [68Ga]Ga-PSMA-11; cited from earlier work
T1 construct: host or cells: LNCaP
T1 sequence (Q04609 whole entry): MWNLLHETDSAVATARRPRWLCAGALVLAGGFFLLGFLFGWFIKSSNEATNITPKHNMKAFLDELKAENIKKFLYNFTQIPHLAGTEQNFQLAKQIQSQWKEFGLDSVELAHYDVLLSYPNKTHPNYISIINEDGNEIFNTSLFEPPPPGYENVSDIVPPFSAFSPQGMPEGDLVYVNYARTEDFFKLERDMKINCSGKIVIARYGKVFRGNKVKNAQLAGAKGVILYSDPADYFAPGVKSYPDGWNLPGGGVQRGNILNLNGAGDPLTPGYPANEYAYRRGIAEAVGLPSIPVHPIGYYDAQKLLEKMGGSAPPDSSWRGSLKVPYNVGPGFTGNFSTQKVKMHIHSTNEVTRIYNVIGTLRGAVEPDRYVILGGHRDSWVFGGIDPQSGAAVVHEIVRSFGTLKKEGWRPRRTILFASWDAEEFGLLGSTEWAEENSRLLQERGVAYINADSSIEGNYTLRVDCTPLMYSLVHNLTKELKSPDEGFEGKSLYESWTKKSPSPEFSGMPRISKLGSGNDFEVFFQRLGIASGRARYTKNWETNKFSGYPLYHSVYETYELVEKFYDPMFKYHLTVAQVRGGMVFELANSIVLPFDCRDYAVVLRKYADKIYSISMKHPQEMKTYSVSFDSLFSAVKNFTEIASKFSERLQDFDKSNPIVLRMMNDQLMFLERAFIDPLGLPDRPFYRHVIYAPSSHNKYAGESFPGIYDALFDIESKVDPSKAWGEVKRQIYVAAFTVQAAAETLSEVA

Structure (SMILES): O=C([O-])CN1CCN(CC(=O)[O-])CCN(CC(=O)NCCCCCN(CCCC[C@H](NC(=O)N[C@@H](CCC(=O)O)C(=O)O)C(=O)O)C(=O)C2c3ccccc3-c3ccccc32)CCN(CC(=O)[O-])CC1.[68Ga+3] [[^68Ga]Ga-Flu-1]
- Internalization in LNCaP cells [1]: 21.3 ± 0.13%
- Uptake in LNCaP cells [1]: 34.57 ± 4.14%
- Tumor/Blood ratio ([2]; 30 min): 5.94±1.41
- Tumor/Heart ratio ([2]; 30 min): 17.48±3.23
- Tumor/Kidney ratio ([2]; 30 min): 0.14±0.12
- Tumor/Liver ratio ([2]; 30 min): 15.57±2.89
- Tumor/Salivary ratio ([2]; 30 min): 5.63±1.11
- Blood uptake ([2]; 30 min p.i.): 5.53±2.11 %ID/g
- Bone uptake ([2]; 30 min p.i.): 0.66±0.22 %ID/g
- Brain uptake ([2]; 30 min p.i.): 0.18±0.10 %ID/g
- Heart uptake ([2]; 30 min p.i.): 1.88±0.46 %ID/g
- Kidney uptake ([2]; 30 min p.i.): 240.00 ± 34.68 %ID/g
- Liver uptake ([2]; 30 min p.i.): 2.11±0.52 %ID/g
- Lung uptake ([2]; 30 min p.i.): 5.77±2.01 %ID/g
- Muscle uptake ([2]; 30 min p.i.): 0.93±0.34 %ID/g
- Salivary uptake ([2]; 30 min p.i.): 5.84±3.65 %ID/g
- Small int (small intestine) uptake ([2]; 30 min p.i.): 2.52±0.60 %ID/g
- Spleen uptake ([2]; 30 min p.i.): 9.45±5.92 %ID/g
- Stomach uptake ([2]; 30 min p.i.): 1.84±0.31 %ID/g
- Tumor uptake ([2]; 30 min p.i.): 32.86 ± 12.02 %ID/g
- Tumor/Blood ratio ([2]; 60 min): 11.1±1.97
- Tumor/Heart ratio ([2]; 60 min): 44.13±4.22
- Tumor/Kidney ratio ([2]; 60 min): 0.22±0.21
- Tumor/Liver ratio ([2]; 60 min): 33.17±3.09
- Tumor/Salivary ratio ([2]; 60 min): 17.24±3.54
- Blood uptake ([2]; 60 min p.i.): 4.69±2.33 %ID/g
- Bone uptake ([2]; 60 min p.i.): 0.29±0.18 %ID/g
- Brain uptake ([2]; 60 min p.i.): 0.11±0.10 %ID/g
- Heart uptake ([2]; 60 min p.i.): 1.18±0.36 %ID/g
- Kidney uptake ([2]; 60 min p.i.): 240.01±31.08 %ID/g
- Liver uptake ([2]; 60 min p.i.): 1.57±0.60 %ID/g
- Lung uptake ([2]; 60 min p.i.): 3.27±0.84 %ID/g
- Muscle uptake ([2]; 60 min p.i.): 0.44±0.25 %ID/g
- Salivary uptake ([2]; 60 min p.i.): 3.02±1.27 %ID/g
- Small int (small intestine) uptake ([2]; 60 min p.i.): 1.89±1.10 %ID/g
- Spleen uptake ([2]; 60 min p.i.): 7.25±3.39 %ID/g
- Stomach uptake ([2]; 60 min p.i.): 0.86±0.11 %ID/g
- Tumor uptake ([2]; 60 min p.i.): 52.07 ± 14.83 %ID/g
- Tumor/Blood ratio ([2]; 120 min): 13.07±2.56
- Tumor/Heart ratio ([2]; 120 min): 69.16±5.69
- Tumor/Kidney ratio ([2]; 120 min): 0.31±0.21
- Tumor/Liver ratio ([2]; 120 min): 37.14±3.65
- Tumor/Salivary ratio ([2]; 120 min): 27.47±4.33
- Blood uptake ([2]; 120 min p.i.): 3.07±2.7 %ID/g
- Bone uptake ([2]; 120 min p.i.): 0.34±0.21 %ID/g
- Brain uptake ([2]; 120 min p.i.): 0.06±0.04 %ID/g
- Heart uptake ([2]; 120 min p.i.): 0.58±0.28 %ID/g
- Kidney uptake ([2]; 120 min p.i.): 127.83 ± 27.94 %ID/g
- Liver uptake ([2]; 120 min p.i.): 1.08±0.71 %ID/g
- Lung uptake ([2]; 120 min p.i.): 1.23±0.47 %ID/g
- Muscle uptake ([2]; 120 min p.i.): 0.19±0.08 %ID/g
- Salivary uptake ([2]; 120 min p.i.): 1.46±1.05 %ID/g
- Small int (small intestine) uptake ([2]; 120 min p.i.): 0.46±0.25 %ID/g
- Spleen uptake ([2]; 120 min p.i.): 2.38±1.75 %ID/g
- Stomach uptake ([2]; 120 min p.i.): 0.42±0.17 %ID/g
- Tumor uptake ([2]; 120 min p.i.): 40.11 ± 9.24 %ID/g
- Kidney uptake, folds greater than that in the tumor [3]: 3 folds
- IC50 [4]: 9.62 ± 1.7 nM
